Counter-ions that a name gives are not always drawn. Like-named read-outs stand apart in the source and are kept apart here.
Assays:
[1] = in H2O, cited from earlier work
[2] = Storage stability of mouth rinse formulation B8: potency of the actives by HPLC; format: physicochemical
Text: (§1) Quantification of the respective ingredients was done using high performance liquid chromatography (HPLC). A difference in calculated quantity of less than 5% from the intial formulation (i.e. time=0) amount was considered a “pass”, that is, indicative of minimal degradation. The relative standard deviation for the HPLC calculations was 3%.

[3] = Storage stability of formulation B8: preservative assay by HPLC; format: physicochemical
Text: as §1

[4] = formulation B8, 2 months at 40° C.
[5] = formulation B8, 2 months at 40° C., 90 to 110% of label claim, less than 5% change
[6] = formulation B8, 2 months at room temperature
[7] = formulation B8, 2 months at room temperature, 90 to 110% of label claim, less than 5% change
[8] = formulation B8, 3 months at 40° C.
[9] = formulation B8, 3 months at 40° C., 90 to 110% of label claim, less than 5% change
[10] = formulation B8, 3 months at room temperature
[11] = formulation B8, 3 months at room temperature, 90 to 110% of label claim, less than 5% change
[12] = formulation B8, 4 months at 40° C.
[13] = formulation B8, 4 months at 40° C., 90 to 110% of label claim, less than 5% change
[14] = formulation B8, 4 months at room temperature, 90 to 110% of label claim, less than 5% change
[15] = formulation B8, 12 months at fridge 4° C.
[16] = formulation B8, 12 months at fridge 4° C., 90 to 110% of label claim, less than 5% change
[17] = formulation B8, 12 months at room temperature
[18] = formulation B8, 12 months at room temperature, 90 to 110% of label claim, less than 5% change
[19] = formulation B8, time = 0, limits 90 to 110% of label claim

Row | Preservative assay [3, 4] | Preservative assay [3, 6] | SMILES | Solubility (Notes) ([1]; in words) | Potency (of label claim) [2, 4] | Potency Pass/fail [2, 5] | Potency (of label claim) [2, 6] | Potency Pass/fail [2, 7] | Potency (of label claim) [2, 8] | Potency Pass/fail [2, 9] | Potency (of label claim) [2, 10] | Potency Pass/fail [2, 11] | Potency (of label claim) [2, 12] | Potency Pass/fail [2, 13] | Potency Pass/fail [2, 14] | Potency (of label claim) [2, 15] | Potency Pass/fail [2, 16] | Potency (of label claim) [2, 17] | Potency Pass/fail [2, 18] | Potency (of label claim) ([2]; formulation B8, time = 0) | Potency Pass/fail [2, 19] | other results
1 | – | – | C[C@@H]1C[C@H]2[C@@H]3CCC4=CC(=O)C=C[C@]4(C)[C@@]3(F)[C@@H](O)C[C@]2(C)[C@@]1(O)C(=O)COP(=O)(O)O [Dexamethasone sodium phosphate, Dexamethasone 21-phosphate disodium salt] | H2O soluble | – | – | – | – | – | – | – | – | – | – | – | – | – | – | – | – | – | –
2 | – | – | CN(C)CCOC(c1ccccc1)c1ccccc1 [Diphenhydramine HCl] | – | 100.2% | Pass (A difference in calculated quantity of less than 5% from the intial formulation (i.e. time=0) amount was considered a “pass”) | 100.8% | Pass (A difference in calculated quantity of less than 5% from the intial formulation (i.e. time=0) amount was considered a “pass”) | 101.7% | Pass (A difference in calculated quantity of less than 5% from the intial formulation (i.e. time=0) amount was considered a “pass”) | 101.85% | Pass (A difference in calculated quantity of less than 5% from the intial formulation (i.e. time=0) amount was considered a “pass”) | 100.1% | Pass (A difference in calculated quantity of less than 5% from the intial formulation (i.e. time=0) amount was considered a “pass”) | Pass (A difference in calculated quantity of less than 5% from the intial formulation (i.e. time=0) amount was considered a “pass”) | 102.4% | Pass (A difference in calculated quantity of less than 5% from the intial formulation (i.e. time=0) amount was considered a “pass”) | 103.0% | Pass (A difference in calculated quantity of less than 5% from the intial formulation (i.e. time=0) amount was considered a “pass”) | 100.6% | Pass (A difference in calculated quantity of less than 5% from the intial formulation (i.e. time=0) amount was considered a “pass”) | –
3 | – | – | CCN(CC)CC(=O)Nc1c(C)cccc1C [Lidocaine HCl] | – | 98.1% | Pass (A difference in calculated quantity of less than 5% from the intial formulation (i.e. time=0) amount was considered a “pass”) | 99.7% | Pass (A difference in calculated quantity of less than 5% from the intial formulation (i.e. time=0) amount was considered a “pass”) | 102.15% | Pass (A difference in calculated quantity of less than 5% from the intial formulation (i.e. time=0) amount was considered a “pass”) | 101.8% | Pass (A difference in calculated quantity of less than 5% from the intial formulation (i.e. time=0) amount was considered a “pass”) | 102.9% | Pass (A difference in calculated quantity of less than 5% from the intial formulation (i.e. time=0) amount was considered a “pass”) | Pass (A difference in calculated quantity of less than 5% from the intial formulation (i.e. time=0) amount was considered a “pass”) | 101.4% | Pass (A difference in calculated quantity of less than 5% from the intial formulation (i.e. time=0) amount was considered a “pass”) | 101.4% | Pass (A difference in calculated quantity of less than 5% from the intial formulation (i.e. time=0) amount was considered a “pass”) | 100.4% | Pass (A difference in calculated quantity of less than 5% from the intial formulation (i.e. time=0) amount was considered a “pass”) | –
4 | 95% | 97.6% | COC(=O)c1ccc(O)cc1 [Methyl paraben] | – | – | – | – | – | – | – | – | – | – | – | – | – | – | – | – | – | – | Preservative assay [3, 8]: 95.7%; Preservative assay [3, 10]: 100.1%; Preservative assay [3, 12]: 97.1%; Preservative assay [3, 17]: Methyl P - 98.2%; Preservative assay ([3]; formulation B8, time = 0): paraben: 100.8%
5 | – | – | C[C@@H]1[C@H](O)[C@@H](C)/C=C/C=C/CC/C=C/C=C/C=C/C=C/C(O[C@H]2O[C@H](C)[C@@H](O)[C@H](N)[C@@H]2O)CC2O[C@](O)(CC(O)C(O)CCC(O)CC(O)CC(O)CC(=O)O[C@H]1C)CC(O)C2C(=O)O (stereo partly drawn) [Nystatin] | slightly soluble- | 98.4% | Fail | 106.8% | Pass (A difference in calculated quantity of less than 5% from the intial formulation (i.e. time=0) amount was considered a “pass”) | 88.8% | Fail | 106% | Pass (A difference in calculated quantity of less than 5% from the intial formulation (i.e. time=0) amount was considered a “pass”) | 92.4% | Fail | Pass (A difference in calculated quantity of less than 5% from the intial formulation (i.e. time=0) amount was considered a “pass”) | 101.7% | Pass (A difference in calculated quantity of less than 5% from the intial formulation (i.e. time=0) amount was considered a “pass”) | 109.6% | Pass (A difference in calculated quantity of less than 5% from the intial formulation (i.e. time=0) amount was considered a “pass”) | 108.5% | Pass (A difference in calculated quantity of less than 5% from the intial formulation (i.e. time=0) amount was considered a “pass”) | Potency (of label claim) ([2]; formulation B8, 4 months at room temperature): 105.3%; Solubility (Notes) [1]: 4 mg/ml in H2O
6 | 99.1% | 99.3% | CCCOC(=O)c1ccc(O)cc1 [Propyl paraben] | – | – | – | – | – | – | – | – | – | – | – | – | – | – | – | – | – | – | Preservative assay [3, 8]: 99.4%; Preservative assay [3, 10]: 100.4%; Preservative assay [3, 12]: 99.2%; Preservative assay [3, 17]: Propul P - 99.1%; Preservative assay ([3]; formulation B8, time = 0): paraben: 99.1%

Reference: US20100190735A1, “Mouthwash and Method of Using Same for the Treatment of Mucositis or Stomatitis” (priority 2006, published 2010)
